Experiments:
Experiment in all cases: relative viability (nuclei count vs DMSO), 5 days (fraction); higher = more cells survive
CUDC-101 + Dasatinib = compound: C#Cc1cccc(Nc2ncnc3cc(OC)c(OCCCCCCC(=O)NO)cc23)c1 [CUDC-101] + Cc1nc(Nc2ncc(C(=O)Nc3c(C)cccc3Cl)s2)cc(N2CCN(CCO)CC2)n1 [Dasatinib] (partner 0.075 µM)
Summary of the method: (§1)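 Dosing by pin tool came one day after lung cancer cell lines were seeded in 1536-well plates, using either one drug or a fixed anchor-drug dose plus five library-drug doses (not always all listed) in √10 steps. After 5 days, nuclei were counted on 4× images. Relative viability is treated-well nuclei count divided by vehicle-well nuclei count, and values are medians of duplicate plates.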

CUDC-101 + Vorinostat = compound: C#Cc1cccc(Nc2ncnc3cc(OC)c(OCCCCCCC(=O)NO)cc23)c1 [CUDC-101] + O=C(CCCCCCC(=O)Nc1ccccc1)NO [Vorinostat] (partner 1 µM)
Summary of the method: as §1

[1] = compound: C1=CC=C2C(=C1)N=C(S2)C(C#N)C3=NC(=NC=C3)NCCC4=CN=CC=C4 + Nc1ncn([C@H]2C[C@H](O)[C@@H](CO)O2)c(=O)n1 [Decitabine] (partner 2 µM)
Summary of the method: as §1

[2] = compound: C1=CC=C2C(=C1)N=C(S2)C(C#N)C3=NC(=NC=C3)NCCC4=CN=CC=C4 + CS(=O)(=O)CCNCc1ccc(-c2ccc3ncnc(Nc4ccc(OCc5cccc(F)c5)c(Cl)c4)c3c2)o1 [Lapatinib] (partner 2 µM)
Summary of the method: as §1

| Cell Line | relative viability (CUDC-101 + Dasatinib; first compound 0.01 µM) | relative viability (CUDC-101 + Dasatinib; first compound 0.03162 µM) | relative viability (CUDC-101 + Dasatinib; first compound 0.1 µM) | relative viability (CUDC-101 + Dasatinib; first compound 0.3162 µM) | relative viability (CUDC-101 + Dasatinib; first compound 1 µM) | relative viability (CUDC-101 + Vorinostat; first compound 0.01 µM) | relative viability (CUDC-101 + Vorinostat; first compound 0.03162 µM) | relative viability (CUDC-101 + Vorinostat; first compound 0.1 µM) | relative viability (CUDC-101 + Vorinostat; first compound 0.3162 µM) | relative viability (CUDC-101 + Vorinostat; first compound 1 µM) | relative viability ([1]; first compound 0.005 µM) | relative viability ([1]; first compound 0.01581 µM) | relative viability ([1]; first compound 0.05 µM) | relative viability ([1]; first compound 0.1581 µM) | relative viability ([1]; first compound 0.5 µM) | relative viability ([2]; first compound 0.005 µM) | relative viability ([2]; first compound 0.01581 µM) | relative viability ([2]; first compound 0.05 µM) | relative viability ([2]; first compound 0.1581 µM) | relative viability ([2]; first compound 0.5 µM) |
| --- | --- | --- | --- | --- | --- | --- | --- | --- | --- | --- | --- | --- | --- | --- | --- | --- | --- | --- | --- | --- |
| EMC-BAC-2 | 0.359 | 0.324 | 0.35 | 0.262 | 0.149 | 0.506 | 0.449 | 0.507 | 0.309 | 0.191 | 0.872 | 0.984 | 0.916 | 1.04 | 0.91 | 0.845 | 0.855 | 0.826 | 1.02 | 0.879 |
| NCI-H1437 | 0.384 | 0.364 | 0.457 | 0.432 | 0.402 | 0.864 | 0.857 | 0.814 | 0.808 | 0.495 | 0.484 | 0.6 | 0.508 | 0.602 | 0.548 | 0.762 | 0.902 | 0.987 | 0.9 | 0.704 |
| NCI-H1944 | 0.215 | 0.184 | 0.201 | 0.196 | 0.196 | 0.522 | 0.58 | 0.529 | 0.533 | 0.369 | 0.404 | 0.497 | 0.412 | 0.433 | 0.388 | 0.89 | 0.847 | 0.746 | 0.977 | 0.819 |
| NCI-H838 | 0.338 | – | 0.308 | 0.335 | 0.358 | 0.719 | 0.741 | 0.708 | 0.555 | 0.372 | 0.435 | 0.461 | 0.425 | 0.47 | 0.445 | 0.916 | 0.962 | 1.12 | 1.15 | 0.95 |
| HCC-827 | 0.317 | 0.154 | 0.116 | 0.135 | 0.13 | 0.929 | 0.835 | 0.168 | 0.156 | 0.14 | 0.318 | 0.322 | 0.319 | 0.399 | 0.328 | 0.242 | 0.183 | 0.259 | 0.188 | 0.208 |
| NCI-H2342 | 0.316 | 0.301 | 0.325 | 0.298 | 0.241 | 0.737 | 0.663 | 0.773 | 0.685 | 0.703 | 0.727 | 0.844 | 0.694 | 0.837 | 0.71 | – | – | – | – | – |
| LOU-NH91 | 0.596 | 0.509 | 0.469 | 0.486 | 0.38 | 1.04 | 0.842 | 0.833 | 0.703 | 0.43 | 0.85 | 0.822 | 0.765 | 0.818 | 0.8 | 0.799 | 0.758 | 0.688 | 0.739 | 0.724 |
| NCI-H3122 | 0.82 | 0.867 | 0.798 | 0.783 | 0.454 | 1.04 | 0.912 | 0.895 | 1.01 | 0.685 | 0.333 | 0.394 | 0.492 | 0.577 | 0.441 | 1.01 | 1 | 1.06 | 1 | 1.03 |
| NCI-H1563 | 0.439 | 0.465 | 0.448 | 0.488 | 0.429 | – | – | – | – | – | – | – | – | – | – | 0.857 | 0.871 | 0.775 | 0.938 | 0.916 |
| NCI-H1734 | 0.502 | 0.43 | 0.461 | 0.536 | 0.376 | 0.882 | 0.76 | 0.832 | 0.595 | 0.369 | 0.453 | 0.49 | 0.522 | 0.495 | 0.488 | 1.05 | 1.09 | 1.03 | 1.14 | 1.01 |
| EPLC-272H | 0.448 | 0.364 | 0.316 | 0.357 | 0.183 | 0.345 | 0.38 | 0.464 | 0.229 | 0.118 | 0.501 | 0.337 | 0.36 | 0.385 | 0.309 | 0.784 | 0.642 | 1.02 | 1.15 | 0.684 |
| RERF-LC-KJ | 0.793 | 0.891 | 0.765 | 0.793 | 0.421 | 0.732 | 0.783 | 0.612 | 0.659 | 0.439 | 0.621 | 0.773 | 0.682 | 0.785 | 0.606 | 0.982 | 0.934 | 0.77 | 0.883 | 0.732 |
| EBC-1 | – | – | – | – | – | – | – | – | – | – | – | – | – | – | – | 0.272 | 0.19 | 0.239 | 0.194 | 0.259 |
| HARA | 0.246 | 0.311 | 0.271 | 0.282 | 0.229 | 0.505 | 0.678 | 0.577 | 0.478 | 0.22 | 0.7 | 0.574 | 0.634 | 0.538 | 0.584 | 0.692 | 0.862 | 0.643 | 1.01 | 0.676 |
| NCI-H1651 | 0.378 | 0.335 | 0.434 | 0.39 | 0.384 | 0.539 | 0.545 | 0.578 | 0.51 | 0.497 | 0.546 | 0.557 | 0.684 | 0.711 | 0.603 | 0.76 | 0.697 | 1.03 | 1.11 | 0.872 |
